Source: US20260070917A1, “CYCLIN DEPENDENT KINASE DEGRADERS AND METHODS OF USE THEREOF” (Differentiated Therapeutics Inc, priority 2023, published 2026)
Read-outs that look alike come from different tables or passages of the source.

Key:
Assay type in all cases: cell-based
CDK9 = molecular target: T1, CDK9 (Homo sapiens, UniProt P50750); test: HiBit Assay Protocol for CDK9 (HIBIT protein quantification, degradation); settings: HEK293-CDK9-Hibit cells, compound treatment for 6 hours; for Dmax: read-out: CDK9 HIBIT Protein Quantification Maximum
T1 construct: host or cells: HEK293-CDK9-Hibit
T1 sequence (P50750 whole entry): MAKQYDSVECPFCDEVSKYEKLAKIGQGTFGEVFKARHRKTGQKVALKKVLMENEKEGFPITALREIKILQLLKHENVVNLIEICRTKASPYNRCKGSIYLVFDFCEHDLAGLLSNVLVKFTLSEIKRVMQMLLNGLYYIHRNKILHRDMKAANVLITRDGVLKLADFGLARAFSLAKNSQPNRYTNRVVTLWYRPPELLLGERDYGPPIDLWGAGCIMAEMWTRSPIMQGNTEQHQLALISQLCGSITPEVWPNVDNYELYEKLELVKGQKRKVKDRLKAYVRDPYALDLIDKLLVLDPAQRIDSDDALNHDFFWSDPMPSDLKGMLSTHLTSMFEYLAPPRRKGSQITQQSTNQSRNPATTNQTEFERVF
Procedure, shortened: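 Degradation read-out: luminescence after lytic HiBiT/LgBiT detection in HEK293-CDK9-HiBiT cells exposed 6 h to 10-point, 3-fold compound dilutions. Signal scaled between 0.1% DMSO-treated cells and medium alone; DC50 fitted from the curve.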

CDK2 = molecular target: T2, CDK2 (Homo sapiens, UniProt P24941); test: HiBit Assay Protocol for CDK2 (HIBIT protein quantification, degradation); settings: HEK293-CDK2-Hibit cells, compound treatment for 6 hours; for DC50: ABS DC50
T2 construct: host or cells: HEK293-CDK2-Hibit
Procedure, shortened: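 DC50 comes from a fitted curve of remaining CDK2-HiBiT luminescence, referenced to DMSO-treated cells and medium-only wells. HEK293-CDK2-HiBiT cells, plated the previous night, received compounds in a 10-point, 3-fold series for 6 h before lysis with LgBiT-containing Nano-Glo HiBiT reagent.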

CCNE1 = molecular target: T3, CCNE1 (Homo sapiens, UniProt P24864); test: HiBit Assay Protocol for CCNE1 (HIBIT protein quantification, degradation); settings: HEK293-CCNE1-Hibit cells, compound treatment for 6 hours
T3 construct: host or cells: HEK293-CCNE1-Hibit
T3 sequence (P24864 whole entry): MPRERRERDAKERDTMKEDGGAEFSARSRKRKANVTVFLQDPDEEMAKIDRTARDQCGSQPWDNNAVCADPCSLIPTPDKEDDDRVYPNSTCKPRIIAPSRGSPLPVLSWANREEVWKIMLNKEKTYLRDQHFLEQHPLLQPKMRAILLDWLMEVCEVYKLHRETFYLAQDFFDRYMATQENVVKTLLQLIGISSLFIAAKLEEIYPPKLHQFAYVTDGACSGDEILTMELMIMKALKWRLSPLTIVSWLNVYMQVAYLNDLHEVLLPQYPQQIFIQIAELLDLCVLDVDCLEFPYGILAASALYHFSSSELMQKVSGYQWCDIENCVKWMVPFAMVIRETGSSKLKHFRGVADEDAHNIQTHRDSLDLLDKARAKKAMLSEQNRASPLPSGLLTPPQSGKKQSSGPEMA
Procedure, shortened: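 Degradation readout: lytic Nano-Glo HiBiT luminescence after 6 h exposure of HEK293-CCNE1-HiBiT cells to 10-point, 3-fold serial dilutions. Signal was scaled between medium-only and DMSO-treated wells, and DC50 came from curve fits.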

| SMILES | Dmax (CDK9) [%] | CDK2 HIBIT Protein Quantification Maximum (CDK2) [%] | DC50 (CDK2) [nM] | CCNE1 HIBIT Protein Quantification Maximum (CCNE1) [%] | Dmax (CDK9; 6 h) [%] | DC50 (CDK9; ABS DC50) [nM] |
| --- | --- | --- | --- | --- | --- | --- |
| O=C1CCC(N2Cc3cc(N4CCC(CN5CCN(c6cccc(S(=O)(=O)N7CCC(Nc8ncc9c(n8)N([C@@H]8CCC[C@@H](O)C8)C(=O)C98CC8)CC7)c6)CC5)CC4)ccc3C2=O)C(=O)N1 (stereo partly drawn) [Compound 119, 3-{5-[4-({4-[3-(4-{7′-[(1R,3R)-3-hydroxycyclohexyl]-6′-oxospiro[cyclopropane-1,5′-pyrrolo [2,3-d]pyrimidin]-2′-ylamino}piperidin-1-ylsulfonyl)phenyl]piperazin-1-yl}methyl)piperidin-1-yl]-1-oxo-3H-isoindol-2-yl}piperidine-2,6-dione] | 25 | 70 | 3 | 22 |  |  |
| O=C1CCC(N2Cc3cc(N4CC5(CN(Cc6cccc(S(=O)(=O)N7CCC(Nc8ncc9c(n8)N([C@@H]8CCC[C@@H](O)C8)C(=O)C98CC8)CC7)c6)C5)C4)ccc3C2=O)C(=O)N1 (some centres unmarked) [Compound 120] |  | 62 | 23 | 23 | 25 |  |
| O=C1CCC(N2Cc3cc(N4CCN(Cc5cccc(S(=O)(=O)N6CCC(Nc7ncc8c(n7)N([C@@H]7CCC[C@@H](O)C7)C(=O)C87CC7)CC6)c5)CC4)c(F)cc3C2=O)C(=O)N1 (stereo partly drawn) [Compound 121, 3-(6-fluoro-5-(4-(3-((4-((7′-((1R,3R)-3-hydroxycyclohexyl)-6′-oxo-6′,7′-dihydrospiro [cyclopropane-1,5′-pyrrolo[2,3-d]pyrimidin]-2′-yl)amino)piperidin-1-yl)sulfonyl)benzyl)piperazin-1-yl)-1-oxoisoindolin-2-yl)piperidine-2,6-dione] |  | 79 | 47 | 44 | 12 |  |
| O=C1CCC(N2Cc3cc(N4CCN(CC5CCN(c6cccc(S(=O)(=O)N7CCC(Nc8ncc9c(n8)N([C@@H]8CCC[C@@H](O)C8)C(=O)C98CC8)CC7)c6)CC5)CC4)ccc3C2=O)C(=O)N1 (stereo partly drawn) [Compound 122, 3-{5-[4-({1-[3-(4-{7′-[(1R,3R)-3-hydroxycyclohexyl]-6′-oxospiro[cyclopropane-1,5′-pyrrolo [2,3-d]pyrimidin]-2′-ylamino}piperidin-1-ylsulfonyl)phenyl]piperidin-4-yl}methyl)piperazin-1-yl]-1-oxo-3H-isoindol-2-yl}piperidine-2,6-dione] | 22 | 79 | 7 | 25 |  |  |
| O=C1CCC(N2Cc3cc(C4CN(Cc5cccc(S(=O)(=O)N6CCC(Nc7ncc8c(n7)N([C@@H]7CCC[C@@H](O)C7)C(=O)C87CC7)CC6)c5)C4)ccc3C2=O)C(=O)N1 (some centres unmarked) [Compound 123] |  | 52 | 92 | 47 | 8 |  |
| O=C1CCC(N2Cc3cc(N4CCC(CN5CCN(c6cccc(S(=O)(=O)c7ccc(Nc8ncc9c(n8)N([C@@H]8CCC[C@@H](O)C8)C(=O)C98CC8)cc7)c6)CC5)CC4)ccc3C2=O)C(=O)N1 (stereo partly drawn) [Compound 124, 3-{5-[4-({4-[3-(4-{7′-[(1R,3R)-3-hydroxycyclohexyl]-6′-oxospiro [cyclopropane-1,5′-pyrrolo[2,3-d]pyrimidin]-2′-ylamino}benzenesulfonyl)phenyl]piperazin-1-yl}methyl)piperidin-1-yl]-1-oxo-3H-isoindol-2-yl}piperidine-2,6-dione] | 57 | 61 | 6 | 48 |  | 73.6 |
| O=C1CCC(N2Cc3cc(N4CCC(N5CC(Oc6cccc(S(=O)(=O)c7ccc(Nc8ncc9c(n8)N([C@@H]8CCC[C@@H](O)C8)C(=O)C98CC8)cc7)c6)C5)CC4)ccc3C2=O)C(=O)N1 (some centres unmarked) [Compound 127] |  | 69 | 6 | 46 | 49 |  |
| Cn1c(=O)n(C2CCC(=O)NC2=O)c2cccc(C3CCN(CC4CCN(S(=O)(=O)c5ccc(Nc6ncc7c(n6)N([C@@H]6CCC[C@@H](O)C6)C(=O)C76CC6)cc5)CC4)CC3)c21 (some centres unmarked) [Compound 128] |  | 32 |  | 32 | 34 |  |
| CC1CCCC1N1C(=O)C2(CC2)c2cnc(NC3CCN(S(=O)(=O)N4CCC5(CCN(C(=O)CCCc6ccc7c(c6)n(C)c(=O)n7C6CCC(=O)NC6=O)C5)C4)CC3)nc21 (centres unmarked) [Compound 129] |  | 51 | 42 | 18 | 17 |  |
| Cn1c(=O)n(C2CCC(=O)NC2=O)c2cccc(N3CCC(Cn4cc(S(=O)(=O)N5CCC(Nc6ncc7c(n6)N([C@@H]6CCC[C@@H](O)C6)C(=O)C76CC6)CC5)cn4)CC3)c21 (stereo partly drawn) [Compound 130, 3-(4-(4-((4-((4-((7′-((1R,3R)-3-Hydroxycyclohexyl)-6′-oxo-6′,7′-dihydrospiro[cyclopropane-1,5′-pyrrolo[2,3-d]pyrimidin]-2′-yl)amino)piperidin-1-yl)sulfonyl)-1H-pyrazol-1-yl)methyl)piperidin-1-yl)-3-methyl-2-oxo-2,3-dihydro-1H-benzo[d]imidazol-1-yl)piperidine-2,6-dione] | 13 | 76 | 15.8 | 34 |  |  |
| O=C1CCC(N2Cc3cc(CN4CC(Oc5cccc(S(=O)(=O)N6CCC(Nc7ncc8c(n7)N([C@@H]7CCC[C@@H](O)C7)C(=O)C87CC7)CC6)c5)C4)ccc3C2=O)C(=O)N1 (stereo partly drawn) [Compound 132, 3-[5-({3-[3-(4-{7′-[(1R,3R)-3-Hydroxycyclohexyl]-6′-oxospiro[cyclopropane-1,5′-pyrrolo[2,3-d]pyrimidin]-2′-ylamino}piperidin-1-ylsulfonyl)phenoxy]azetidin-1-yl}methyl)-1-oxo-3H-isoindol-2-yl]piperidine-2,6-dione] |  | 48 |  | 47 | 7 |  |
| O=C1CCC(N2Cc3cc(N4CCC(N5CC(Oc6cccc(S(=O)(=O)N7CCC(Nc8ncc9c(n8)N([C@@H]8CCC[C@@H](O)C8)C(=O)C98CC8)CC7)c6)C5)CC4)ccc3C2=O)C(=O)N1 (stereo partly drawn) [Compound 134, 3-[5-(4-{3-[3-(4-{7′-[(1R,3R)-3-Hydroxycyclohexyl]-6′-oxospiro[cyclopropane-1,5′-pyrrolo[2,3-d]pyrimidin]-2′-ylamino}piperidin-1-ylsulfonyl)phenoxy]azetidin-1-yl}piperidin-1-yl)-1-oxo-3H-isoindol-2-yl]piperidine-2,6-dione] | 31 | 74 | 4.22 | 18 |  |  |
| CC1CCCC1N1C(=O)C2(CC2)c2cnc(NC3CCN(S(=O)(=O)N4CC5(CCCN(C6CCCN(c7cccc8c7n(C)c(=O)n8C7CCC(=O)NC7=O)C6)C5)C4)CC3)nc21 (centres unmarked) [Compound 135, 3-{3-Methyl-4-[3-(2-{4-[7′-(2-methylcyclopentyl)-6′-oxospiro[cyclopropane-1,5′-pyrrolo[2,3-d]pyrimidin]-2′-ylamino]piperidin-1-ylsulfonyl}-2,6-diazaspiro[3.5]nonan-6-yl)piperidin-1-yl]-2-oxo-1,3-benzodiazol-1-yl}piperidine-2,6-dione] | 8 | 54 | 16.3 | 8 |  |  |
| CC1CCCC1N1C(=O)C2(CC2)c2cnc(NC3CCN(S(=O)(=O)N4CC5(CCCN(c6cccc(-c7cccc8c7n(C)c(=O)n8C7CCC(=O)NC7=O)c6)C5)C4)CC3)nc21 (centres unmarked) [Compound 136, 3-{3-Methyl-4-[3-(2-{4-[7′-(2-methylcyclopentyl)-6′-oxospiro[cyclopropane-1,5′-pyrrolo[2,3-d]pyrimidin]-2′-ylamino]piperidin-1-ylsulfonyl}-2,6-diazaspiro[3.5]nonan-6-yl)phenyl]-2-oxo-1,3-benzodiazol-1-yl}piperidine-2,6-dione] | 14 | 61 | 131 | 7 |  |  |
| CC1CCCC1N1C(=O)C2(CC2)c2cnc(NC3CCN(S(=O)(=O)N4CC5(CCCN(C6CCN(c7cccc8c7n(C)c(=O)n8C7CCC(=O)NC7=O)C6)C5)C4)CC3)nc21 (centres unmarked) [Compound 137] |  | 52 | 3.25 | 38 | 8 |  |
| CC1CCCC1N1C(=O)C2(CC2)c2cnc(NC3CCN(S(=O)(=O)N4CC5(CCCN(CCOc6cccc7c6n(C)c(=O)n7C6CCC(=O)NC6=O)C5)C4)CC3)nc21 (centres unmarked) [Compound 138, 3-{3-Methyl-4-[2-(2-{4-[7′-(2-methylcyclopentyl)-6′-oxospiro[cyclopropane-1,5′-pyrrolo[2,3-d]pyrimidin]-2′-ylamino]piperidin-1-ylsulfonyl}-2,6-diazaspiro[3.5]nonan-6-yl)ethoxy]-2-oxo-1,3-benzodiazol-1-yl}piperidine-2,6-dione] |  | 45 |  | 14 | 3 |  |
